Measured values as given in PMC9780108, “An intrinsically disordered antimicrobial peptide dendrimer from stereorandomized virtual screening” (Cell Reports. Physical Science, 2022).
Values after ≈ are worked out from the molar mass of the structure shown. Positions of bridges follow the written chain, without caps; N, C: chain ends. Non-standard residues stand in square brackets, D forms with d. Residues, ends and D or L forms follow the SMILES beside them. Groups on a side chain read outwards from the residue. Chains are numbered I, II in the order given. *: point of attachment. X4 = CC(C)C[C@@H](NC(=O)CCCCCN)C(=O)NCCCC[C@@H](NC(=O)[C@@H](CC(C)C)NC(=O)CCCCCN)C(=O)*; X3 = CC(C)C[C@H](NC(=O)CCCCCN)C(=O)NCCCC[C@H](NC(=O)[C@H](CC(C)C)NC(=O)CCCCCN)C(=O)*; Ahx = NCCCCCC(=O)O

What was measured:
HEK293 cell line = type: cell-based; conditions: 48 h
Protocol: HEK 293 cell line were cultured and maintained in DMEM (Dulbeccos modified Eagle
medium, Sigma Aldrich) supplemented with 10% FBS (Sigma Aldrich) and 1%
penicillin/streptomycin. Cells were incubated in a humidified incubator at 37°C in the presence
HEK 293 cell were seeded into 96 well plates at the density of 2 × 10^3 cells/well and incubated
in DMEM containing 10% FBS for 10-14 hours at 37°C in the presence of 5% CO2. The next
day, stock solution of compounds were prepared at concentration of 2 mg/mL in DMEM
containing 10% FBS. 1/2 or 1/3 serial dilution of the peptide dendrimers from 2 mg/mL or 200
µg/mL were performed in DMEM containing 10% FBS. The medium was removed from cell
culture and replaced with the compounds at different concentration after washing with PBS.
The cells were incubated in DMEM containing 10% FBS at 37°C in the presence of 5% CO 2.
Negative control was untreated cell culture without compounds and blank control was wells
without cell but only medium. After 48 hours, a final concentration of 10% AlamarBlue®
(Thermo Fisher Scientific, Reinach, CH) was added to each well . The cells were incubated for
3-5 hours at 37°C with 5% CO 2. The fluorescence was then measured on a Tecan Infinite
M1000 Pro plate reader at λex = 560 nm and λem = 590 nm. The value was normalized
according to the untreated cells.

E. coli W3110 = conditions: for MIC at pH 5.0, E. coli W3110: W3110, pH 5; for MIC at pH 7.4, E. coli W3110: W3110, pH 7.4; for MIC at pH 8.0, E. coli W3110: W3110, pH 8
A. baumannii ATCC 19606 = conditions: for MIC at pH 5.0, A. baumannii ATCC 19606: ATCC 19606, pH 5; for MIC at pH 7.4, A. baumannii ATCC 19606: ATCC 19606, pH 7.4; for MIC at pH 8.0, A. baumannii ATCC 19606: ATCC 19606, pH 8
P. aeruginosa PAO1 = conditions: for MIC at pH 5.0, P. aeruginosa PAO1: PAO1, pH 5; for MIC at pH 7.4, P. aeruginosa PAO1: PAO1, pH 7.4; for MIC at pH 8.0, P. aeruginosa PAO1: PAO1, pH 8
K. pneumoniae NCTC 418 = conditions: for MIC at pH 5.0, K. pneumoniae NCTC 418: NCTC 418, pH 5; for MIC at pH 7.4, K. pneumoniae NCTC 418: NCTC 418, pH 7.4; for MIC at pH 8.0, K. pneumoniae NCTC 418: NCTC 418, pH 8
[1] = system: S aureus COL (methicillin-resistant Staphylococcus aureus); conditions: for MIC at pH 5.0, S aureus COL: COL (methicillin-resistant, pH 5); for MIC at pH 7.4, S aureus COL: COL (methicillin-resistant, pH 7.4); for MIC at pH 8.0, S aureus COL: COL (methicillin-resistant, pH 8)

Structure (SMILES)	IC50 HEK293 (HEK293 cell line) [µg/mL]	MIC at pH 5.0, E. coli W3110 (E. coli W3110)	MIC at pH 7.4, E. coli W3110 (E. coli W3110)	MIC at pH 8.0, E. coli W3110 (E. coli W3110)	MIC at pH 5.0, A. baumannii ATCC 19606 (A. baumannii ATCC 19606)	MIC at pH 7.4, A. baumannii ATCC 19606 (A. baumannii ATCC 19606)	MIC at pH 8.0, A. baumannii ATCC 19606 (A. baumannii ATCC 19606)	MIC at pH 5.0, P. aeruginosa PAO1 (P. aeruginosa PAO1)	MIC at pH 7.4, P. aeruginosa PAO1 (P. aeruginosa PAO1)	MIC at pH 8.0, P. aeruginosa PAO1 (P. aeruginosa PAO1)	MIC at pH 5.0, K. pneumoniae NCTC 418 (K. pneumoniae NCTC 418)	MIC at pH 7.4, K. pneumoniae NCTC 418 (K. pneumoniae NCTC 418)	MIC at pH 8.0, K. pneumoniae NCTC 418 (K. pneumoniae NCTC 418)	MIC at pH 5.0, S aureus COL [1] [μg/mL]	MIC at pH 7.4, S aureus COL [1] [μg/mL]	MIC at pH 8.0, S aureus COL [1] [μg/mL]
CC(C)C[C@@H](NC(=O)CCCCCN)C(=O)NCCCC[C@@H](NC(=O)[C@@H](CC(C)C)NC(=O)CCCCCN)C(=O)N[C@H](CC(C)C)C(=O)NCCCC[C@@H](NC(=O)[C@@H](CC(C)C)NC(=O)[C@@H](CCCCNC(=O)[C@@H](CC(C)C)NC(=O)CCCCCN)NC(=O)[C@@H](CC(C)C)NC(=O)CCCCCN)C(=O)N[C@H](CCCCN)C(=O)N[C@H](CC(C)C)C(=O)N[C@H](CC(C)C)C(=O)NCCCC[C@@H](NC(=O)[C@@H](CC(C)C)NC(=O)[C@@H](CC(C)C)NC(=O)[C@@H](CCCCN)NC(=O)[C@@H](CCCCNC(=O)[C@@H](CC(C)C)NC(=O)[C@@H](CCCCNC(=O)[C@@H](CC(C)C)NC(=O)CCCCCN)NC(=O)[C@@H](CC(C)C)NC(=O)CCCCCN)NC(=O)[C@@H](CC(C)C)NC(=O)[C@@H](CCCCNC(=O)[C@@H](CC(C)C)NC(=O)CCCCCN)NC(=O)[C@@H](CC(C)C)NC(=O)CCCCCN)C(=O)N[C@H](CC(C)C)C(=O)N[C@H](CCCCN)C(=O)N[C@H](CCCCN)C(N)=O [D-aX22] (I: H-[Ahx][dL][dK]([dL-Ahx])[dL][dK]([dL-X4])[dK][dL][dL][dK][dL][dK][dK]-NH2 / II: H-[Ahx][dL][dK]([dL-Ahx])[dL][dK]([dL-X4])[dK][dL][dL]; amide I:9-II:C)	17 ± 2 (≈ 3.99 µM)	4 μg/mL	8 μg/mL	4 μg/mL	4/4/4 μg/mL	4/4/4 μg/mL	4/4/4 μg/mL	32 μg/mL	8 μg/mL	16 μg/mL	64 μg/mL	16 μg/mL	16 μg/mL	> 64	16	4
CC(C)C[C@H](NC(=O)[C@H](CC(C)C)NC(=O)[C@H](CCCCN)NC(=O)[C@H](CCCCNC(=O)[C@H](CC(C)C)NC(=O)[C@H](CC(C)C)NC(=O)[C@H](CCCCNC(=O)[C@H](CC(C)C)NC(=O)[C@H](CCCCN)NC(=O)[C@H](CCCCNC(=O)[C@H](CC(C)C)NC(=O)[C@@H](N)CCCCN)NC(=O)[C@H](CC(C)C)NC(=O)[C@@H](N)CCCCN)NC(=O)[C@H](CC(C)C)NC(=O)[C@H](CCCCN)NC(=O)[C@H](CCCCNC(=O)[C@H](CC(C)C)NC(=O)[C@@H](N)CCCCN)NC(=O)[C@H](CC(C)C)NC(=O)[C@@H](N)CCCCN)NC(=O)[C@H](CC(C)C)NC(=O)[C@H](CC(C)C)NC(=O)[C@H](CCCCNC(=O)[C@H](CC(C)C)NC(=O)[C@H](CCCCN)NC(=O)[C@H](CCCCNC(=O)[C@H](CC(C)C)NC(=O)[C@@H](N)CCCCN)NC(=O)[C@H](CC(C)C)NC(=O)[C@@H](N)CCCCN)NC(=O)[C@H](CC(C)C)NC(=O)[C@H](CCCCN)NC(=O)[C@H](CCCCNC(=O)[C@H](CC(C)C)NC(=O)[C@@H](N)CCCCN)NC(=O)[C@H](CC(C)C)NC(=O)[C@@H](N)CCCCN)C(N)=O [L-T25, reference compound] (HELM PEPTIDE1{K.L.K.K.L.K.L.L.K.K.L.L.[am]}|PEPTIDE2{K.L}|PEPTIDE3{K.L.K.K.L.K.L.L}|PEPTIDE4{K.L}|PEPTIDE5{K.L.K.K.L}|PEPTIDE6{K.L}|PEPTIDE7{K.L.K.K.L}|PEPTIDE8{K.L}$PEPTIDE1,PEPTIDE2,3:R3-2:R2|PEPTIDE3,PEPTIDE4,3:R3-2:R2|PEPTIDE5,PEPTIDE6,3:R3-2:R2|PEPTIDE7,PEPTIDE8,3:R3-2:R2|PEPTIDE1,PEPTIDE7,6:R3-5:R2|PEPTIDE1,PEPTIDE3,9:R3-8:R2|PEPTIDE3,PEPTIDE5,6:R3-5:R2$$$V2.0)	92 ± 3 (≈ 19.9 µM)	32 μg/mL	8 μg/mL	8 μg/mL	16 μg/mL	4 μg/mL	4 μg/mL	32 μg/mL	8 μg/mL	8 μg/mL	> 64 μg/mL	32 μg/mL	16 μg/mL	> 64	> 64	32
CC(C)C[C@H](NC(=O)[C@H](CC(C)C)NC(=O)[C@H](CC(C)C)NC(=O)[C@H](CCCCNC(=O)[C@H](CC(C)C)NC(=O)[C@H](CC(C)C)NC(=O)[C@H](CCCCNC(=O)[C@H](CCCCN)NC(=O)[C@H](CC(C)C)NC(=O)[C@H](CCCCNC(=O)[C@H](CC(C)C)NC(=O)[C@@H](N)CCCCN)NC(=O)[C@H](CC(C)C)NC(=O)[C@@H](N)CCCCN)NC(=O)[C@H](CCCCN)NC(=O)[C@H](CC(C)C)NC(=O)[C@H](CCCCNC(=O)[C@H](CC(C)C)NC(=O)[C@@H](N)CCCCN)NC(=O)[C@H](CC(C)C)NC(=O)[C@@H](N)CCCCN)NC(=O)[C@H](CC(C)C)NC(=O)[C@H](CC(C)C)NC(=O)[C@H](CCCCNC(=O)[C@H](CCCCN)NC(=O)[C@H](CC(C)C)NC(=O)[C@H](CCCCNC(=O)[C@H](CC(C)C)NC(=O)[C@@H](N)CCCCN)NC(=O)[C@H](CC(C)C)NC(=O)[C@@H](N)CCCCN)NC(=O)[C@H](CCCCN)NC(=O)[C@H](CC(C)C)NC(=O)[C@H](CCCCNC(=O)[C@H](CC(C)C)NC(=O)[C@@H](N)CCCCN)NC(=O)[C@H](CC(C)C)NC(=O)[C@@H](N)CCCCN)C(N)=O [L-X18] (HELM PEPTIDE1{K.L.K.L.K.K.L.L.K.L.L.L.[am]}|PEPTIDE2{K.L}|PEPTIDE3{K.L.K.L.K.K.L.L}|PEPTIDE4{K.L}|PEPTIDE5{K.L.K.L.K}|PEPTIDE6{K.L}|PEPTIDE7{K.L.K.L.K}|PEPTIDE8{K.L}$PEPTIDE1,PEPTIDE2,3:R3-2:R2|PEPTIDE3,PEPTIDE4,3:R3-2:R2|PEPTIDE5,PEPTIDE6,3:R3-2:R2|PEPTIDE7,PEPTIDE8,3:R3-2:R2|PEPTIDE1,PEPTIDE7,6:R3-5:R2|PEPTIDE1,PEPTIDE3,9:R3-8:R2|PEPTIDE3,PEPTIDE5,6:R3-5:R2$$$V2.0)	52 ± 4 (≈ 11.3 µM)	16/16/16 μg/mL	16/16/16 μg/mL	16/16/16 μg/mL	16 μg/mL	32 μg/mL	16 μg/mL	16 μg/mL	32 μg/mL	16 μg/mL	> 64 μg/mL	> 64 μg/mL	32 μg/mL	> 64	> 64	16
CC(C)C[C@H](NC(=O)[C@H](CC(C)C)NC(=O)[C@H](CC(C)C)NC(=O)[C@H](CCCCNC(=O)[C@H](CC(C)C)NC(=O)[C@H](CC(C)C)NC(=O)[C@H](CCCCNC(=O)[C@H](CCCCN)NC(=O)[C@H](CC(C)C)NC(=O)[C@H](CCCCNC(=O)[C@H](CC(C)C)NC(=O)CCCCCN)NC(=O)[C@H](CC(C)C)NC(=O)CCCCCN)NC(=O)[C@H](CCCCN)NC(=O)[C@H](CC(C)C)NC(=O)[C@H](CCCCNC(=O)[C@H](CC(C)C)NC(=O)CCCCCN)NC(=O)[C@H](CC(C)C)NC(=O)CCCCCN)NC(=O)[C@H](CC(C)C)NC(=O)[C@H](CC(C)C)NC(=O)[C@H](CCCCNC(=O)[C@H](CCCCN)NC(=O)[C@H](CC(C)C)NC(=O)[C@H](CCCCNC(=O)[C@H](CC(C)C)NC(=O)CCCCCN)NC(=O)[C@H](CC(C)C)NC(=O)CCCCCN)NC(=O)[C@H](CCCCN)NC(=O)[C@H](CC(C)C)NC(=O)[C@H](CCCCNC(=O)[C@H](CC(C)C)NC(=O)CCCCCN)NC(=O)[C@H](CC(C)C)NC(=O)CCCCCN)C(N)=O [L-aX18] (I: H-[Ahx]LK([Leu-Ahx])LKK([Lys-Leu-X3])LLKLLL-NH2 / II: H-[Ahx]LK([Leu-Ahx])LKK([Lys-Leu-X3])LL; amide I:9-II:C)	14 ± 0.6 (≈ 3.12 µM)	32 μg/mL	> 64 μg/mL	32 μg/mL	32 μg/mL	64 μg/mL	32 μg/mL	64/>64/64 μg/mL	64/>64/64 μg/mL	64/>64/64 μg/mL	>64/>64/>64 μg/mL	>64/>64/>64 μg/mL	>64/>64/>64 μg/mL	> 64	> 64	32
